{"source": "paper PMC6232958", "about": "(Molecular Biology of the Cell, 2018)", "system": "CRM1-mediated nuclear export of EYFP2-SV40NLS-NES reporter in HeLa cells", "assay": "Inhibition of reporter nuclear export by cotransfected RFP-NES or by LMB", "assay_type": "cell-based", "conditions": "HeLa cells expressing EYFP2-SV40NLS-PKI NES treated with LMB (5 nM, 16-18 h)", "data": [{"compound": "CCC(=C/[C@H](C)C/C=C/C(C)=C/[C@@H](C)C(=O)[C@@H](C)[C@H](O)[C@@H](C)C/C(C)=C/C(=O)O)/C=C/[C@@H]1OC(=O)C=C[C@@H]1C", "note": "[leptomycin B]", "values": [{"measurement": "decrease of nuclear export of PKI NES", "value": 92, "unit": "%"}]}]}
